Measurements taken from article PMC5698469, “Carrageenan catabolism is encoded by a complex regulon in marine heterotrophic bacteria” (Nature Communications, 2017).
Counter-ions that a name gives are not always drawn.

Assays:
[1] = target: 3,6-anhydro-D-galactonate cycloisomerase DauB (ZGAL_3156) (Zobellia galactanivorans); assay: crystal structure; hanging drop vapor diffusion; 0.2 M tri potassium citrate, 20% PEG 3350, 25 mg/mL ZGAL_3156; data at 100 K
[2] = target: 3,6-anhydro-D-galactonate cycloisomerase DauB (ZGAL_3156) (Zobellia galactanivorans); assay: SEC; size-exclusion column analysis of ZGAL_3156 in solution (Supplementary Fig. 9)
[3] = target: T1, ZGAL_3152 (DagB, GH129-like) (Zobellia galactanivorans, UniProt G0L004); assay: FACE and MALDI-TOF-MS; format: biochemical; conditions: 0.5% hexasaccharide fraction, 150 mM NaCl, 3.75 mM CaCl2, 100 mM HEPES pH 7.5, room temperature overnight
T1 construct: gene zobellia_3152; recombinant, E. coli BL21(DE3), pFO4, IMAC purified; homodimer, residues Pro35-Asp693 described in structure

ZGAL_3145 (CgsA, S1_19) = target: T2, ZGAL_3145 (CgsA, S1_19) (Zobellia galactanivorans, UniProt G0L000); assay: sulfatase activity on artificial substrate; format: biochemical
T2 construct: gene zobellia_3145
T2 sequence (G0L000 44-511): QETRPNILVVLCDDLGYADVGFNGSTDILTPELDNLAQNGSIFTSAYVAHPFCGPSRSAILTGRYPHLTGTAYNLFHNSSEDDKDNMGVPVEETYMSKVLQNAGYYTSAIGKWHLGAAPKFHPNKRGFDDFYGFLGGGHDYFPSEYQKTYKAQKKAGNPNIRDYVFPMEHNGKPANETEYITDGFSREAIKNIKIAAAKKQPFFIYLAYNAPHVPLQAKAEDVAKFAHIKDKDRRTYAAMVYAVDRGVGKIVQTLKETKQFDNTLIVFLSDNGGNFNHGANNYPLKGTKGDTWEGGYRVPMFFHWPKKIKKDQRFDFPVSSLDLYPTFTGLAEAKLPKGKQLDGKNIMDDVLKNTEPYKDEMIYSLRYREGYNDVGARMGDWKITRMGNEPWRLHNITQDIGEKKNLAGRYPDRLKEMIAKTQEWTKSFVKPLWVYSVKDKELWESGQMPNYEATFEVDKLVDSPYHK

ZGAL_3146 (CgsB1, S1_7) = target: T3, ZGAL_3146 (CgsB1, S1_7) (Zobellia galactanivorans, UniProt G0L7B4); assay: sulfatase activity on artificial substrate; format: biochemical
T3 construct: gene idsA3
T3 sequence (G0L7B4 19-544): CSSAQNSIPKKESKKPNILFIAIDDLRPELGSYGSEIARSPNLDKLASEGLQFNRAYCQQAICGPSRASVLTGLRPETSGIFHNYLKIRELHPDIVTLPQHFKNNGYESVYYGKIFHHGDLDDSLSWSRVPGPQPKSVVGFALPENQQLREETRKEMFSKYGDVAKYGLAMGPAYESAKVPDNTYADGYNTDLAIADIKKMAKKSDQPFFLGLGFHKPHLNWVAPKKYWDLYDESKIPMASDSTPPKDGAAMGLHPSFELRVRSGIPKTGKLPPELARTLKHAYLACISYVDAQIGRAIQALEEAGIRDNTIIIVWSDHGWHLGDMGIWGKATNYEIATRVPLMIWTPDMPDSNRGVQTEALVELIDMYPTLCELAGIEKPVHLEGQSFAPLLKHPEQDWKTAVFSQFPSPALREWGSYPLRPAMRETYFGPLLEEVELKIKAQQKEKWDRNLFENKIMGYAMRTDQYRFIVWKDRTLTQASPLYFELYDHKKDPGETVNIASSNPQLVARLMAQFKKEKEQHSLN

ZGAL_3151 (CgsC, S1_17) = target: T4, ZGAL_3151 (CgsC, S1_17) (Zobellia galactanivorans, UniProt G0L7B6); assay: sulfatase activity on artificial substrate; format: biochemical
T4 construct: gene zobellia_3151
T4 sequence (G0L7B6 40-596): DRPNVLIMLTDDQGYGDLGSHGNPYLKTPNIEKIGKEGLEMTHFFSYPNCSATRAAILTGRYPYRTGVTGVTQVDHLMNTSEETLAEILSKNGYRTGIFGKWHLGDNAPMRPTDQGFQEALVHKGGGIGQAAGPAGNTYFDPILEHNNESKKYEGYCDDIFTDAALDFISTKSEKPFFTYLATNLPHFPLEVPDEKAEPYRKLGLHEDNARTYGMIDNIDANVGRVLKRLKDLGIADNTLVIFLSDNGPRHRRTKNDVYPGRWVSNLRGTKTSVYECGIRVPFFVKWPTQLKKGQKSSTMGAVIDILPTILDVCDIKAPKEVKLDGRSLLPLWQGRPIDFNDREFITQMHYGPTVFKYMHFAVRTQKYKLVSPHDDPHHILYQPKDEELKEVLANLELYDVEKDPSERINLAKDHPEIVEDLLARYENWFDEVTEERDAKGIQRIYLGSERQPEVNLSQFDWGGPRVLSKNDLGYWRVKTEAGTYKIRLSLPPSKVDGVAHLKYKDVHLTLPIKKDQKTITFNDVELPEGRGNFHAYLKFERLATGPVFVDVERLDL

[4] = target: α-1,3-(3,6-anhydro)-D-galactosidase DagB (ZGAL_3152, GH129-like) (Zobellia galactanivorans); assay: crystal structure; hanging drop vapor diffusion; 0.14 M Na/K-tartrate, 12% PEG 3350, 9 mg/mL ZGAL_3152; data at 100 K
[5] = target: T5, ZGAL_3147 (DagA1, GH127-1) (Zobellia galactanivorans, UniProt G0L001); assay: FACE and MALDI MS, E. coli soluble lysate; format: biochemical; conditions: 0.5% hexasaccharide fraction, 150 mM NaCl, 3.75 mM CaCl2, 100 mM HEPES pH 7.5, room temperature overnight; vector-only lysate as control
T5 construct: gene zobellia_3147; recombinant, soluble lysate of E. coli BL21(DE3), pFO4
T5 sequence (G0L001 20-681): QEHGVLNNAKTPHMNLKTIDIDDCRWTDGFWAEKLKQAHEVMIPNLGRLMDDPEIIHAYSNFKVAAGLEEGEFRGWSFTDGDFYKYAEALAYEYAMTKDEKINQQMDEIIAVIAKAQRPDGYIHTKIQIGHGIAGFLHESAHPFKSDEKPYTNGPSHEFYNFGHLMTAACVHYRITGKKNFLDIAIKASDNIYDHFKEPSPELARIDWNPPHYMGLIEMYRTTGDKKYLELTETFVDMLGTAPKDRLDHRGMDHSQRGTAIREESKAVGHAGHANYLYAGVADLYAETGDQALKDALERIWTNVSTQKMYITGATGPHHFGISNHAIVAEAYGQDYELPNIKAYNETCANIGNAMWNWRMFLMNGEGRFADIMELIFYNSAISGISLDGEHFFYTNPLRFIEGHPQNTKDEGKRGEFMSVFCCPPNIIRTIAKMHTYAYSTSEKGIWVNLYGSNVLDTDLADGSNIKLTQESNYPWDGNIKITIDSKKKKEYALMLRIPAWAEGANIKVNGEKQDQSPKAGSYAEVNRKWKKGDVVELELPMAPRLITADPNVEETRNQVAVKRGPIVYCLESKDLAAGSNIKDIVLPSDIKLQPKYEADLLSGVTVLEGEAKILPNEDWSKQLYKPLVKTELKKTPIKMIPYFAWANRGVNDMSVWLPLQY

[6] = target: T6, ZGAL_3148 (DagA2, GH127-2) (Zobellia galactanivorans, UniProt G0L7B5); assay: FACE and MALDI MS, E. coli soluble lysate; format: biochemical; conditions: 0.5% hexasaccharide fraction, 150 mM NaCl, 3.75 mM CaCl2, 100 mM HEPES pH 7.5, room temperature overnight
T6 construct: gene zobellia_3148; recombinant, soluble lysate of E. coli BL21(DE3), pFO4
T6 sequence (G0L7B5 1-656): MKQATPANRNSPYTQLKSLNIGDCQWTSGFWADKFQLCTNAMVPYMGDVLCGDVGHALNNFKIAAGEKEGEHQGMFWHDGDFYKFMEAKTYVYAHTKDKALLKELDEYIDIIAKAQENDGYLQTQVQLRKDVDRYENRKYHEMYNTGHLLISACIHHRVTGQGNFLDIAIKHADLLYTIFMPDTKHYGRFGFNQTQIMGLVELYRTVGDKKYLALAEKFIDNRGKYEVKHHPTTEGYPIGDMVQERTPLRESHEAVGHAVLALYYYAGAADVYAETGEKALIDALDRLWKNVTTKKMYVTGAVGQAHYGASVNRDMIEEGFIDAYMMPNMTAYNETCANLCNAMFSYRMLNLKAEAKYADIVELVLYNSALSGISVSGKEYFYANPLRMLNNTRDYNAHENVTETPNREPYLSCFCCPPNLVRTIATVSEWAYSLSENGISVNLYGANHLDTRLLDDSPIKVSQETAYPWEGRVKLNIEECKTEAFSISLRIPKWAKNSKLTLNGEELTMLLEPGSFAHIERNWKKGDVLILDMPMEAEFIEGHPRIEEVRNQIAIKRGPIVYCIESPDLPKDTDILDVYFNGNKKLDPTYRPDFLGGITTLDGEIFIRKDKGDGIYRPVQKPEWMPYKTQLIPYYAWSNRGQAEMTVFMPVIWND

T1 sequence (G0L004 entry or part of it): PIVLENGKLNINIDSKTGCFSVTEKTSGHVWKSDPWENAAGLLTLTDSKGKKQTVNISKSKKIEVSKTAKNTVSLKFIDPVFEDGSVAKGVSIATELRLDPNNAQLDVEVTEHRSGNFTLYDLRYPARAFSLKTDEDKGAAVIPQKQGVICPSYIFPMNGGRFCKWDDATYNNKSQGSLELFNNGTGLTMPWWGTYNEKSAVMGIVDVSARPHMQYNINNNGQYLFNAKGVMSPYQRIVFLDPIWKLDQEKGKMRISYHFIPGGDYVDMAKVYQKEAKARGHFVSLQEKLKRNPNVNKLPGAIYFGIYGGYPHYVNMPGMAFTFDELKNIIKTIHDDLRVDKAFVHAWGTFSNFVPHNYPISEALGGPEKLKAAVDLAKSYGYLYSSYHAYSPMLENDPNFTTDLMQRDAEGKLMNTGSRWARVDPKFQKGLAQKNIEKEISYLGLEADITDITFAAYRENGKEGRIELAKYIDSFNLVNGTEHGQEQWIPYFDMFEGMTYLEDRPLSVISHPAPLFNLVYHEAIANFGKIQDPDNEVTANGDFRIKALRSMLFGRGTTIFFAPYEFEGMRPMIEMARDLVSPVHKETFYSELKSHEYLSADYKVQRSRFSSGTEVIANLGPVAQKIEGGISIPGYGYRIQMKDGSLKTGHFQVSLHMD

In the case of “3,6-anhydro-D-galactonate cycloisomerase DauB (ZGAL_3156) (enzyme)”, the stoichiometry N [1] was 8 and the stoichiometry N [2] was 8.
With `O=C[C@H](O)[C@H]1OC[C@@H](O)[C@@H]1O` [D-AnG] the “FACE and MALDI-TOF-MS” value [3] was “indicated the release of the terminal neutral monosaccharide D-AnG and of a pentasaccharide”.
In the case of `Cc1cc(=O)oc2cc(OS(=O)(=O)O)ccc12` [4-methylumbelliferyl sulfate], the “sulfatase activity on artificial substrate” value (“sulfatase activity” below) (ZGAL_3145 (CgsA, S1_19)) was “shown to be active sulfatases using the artificial substrate 4-methylumbelliferyl sulfate”, the “sulfatase activity” value (ZGAL_3146 (CgsB1, S1_7)) was “shown to be active sulfatases using the artificial substrate 4-methylumbelliferyl sulfate” and the “sulfatase activity” value (ZGAL_3151 (CgsC, S1_17)) was “shown to be active sulfatases using the artificial substrate 4-methylumbelliferyl sulfate”.
In the case of “α-1,3-(3,6-anhydro)-D-galactosidase DagB (ZGAL_3152, GH129-like) (enzyme)”, the stoichiometry N [4] was 2.
With `O=S(=O)(O)O[C@@H]1[C@H](O[C@H]2O[C@@H]3CO[C@H]([C@H]2O)[C@H]3O[C@@H]2O[C@H](CO)[C@H](O)[C@H](O[C@H]3O[C@@H]4CO[C@@H]([C@H]4O)[C@H]3O)[C@H]2O)[C@@H](O)[C@H](O[C@@H]2[C@@H]3OC[C@H]2O[C@H](O[C@H]2[C@@H](OS(=O)(=O)O)[C@@H](CO)OC(O)[C@@H]2O)[C@@H]3O)O[C@@H]1CO` (stereo partly drawn) [DP6 beta-kappa-kappa oligosaccharide] the “FACE and MALDI MS, E. coli soluble lysate” value [5] was “All the GHs showed activity on the furcellaran hexasaccharide, as demonstrated using FACE” and the “FACE and MALDI MS, E. coli soluble lysate” value [6] was “All the GHs showed activity on the furcellaran hexasaccharide, as demonstrated using FACE”.
